Consider one sequence from PMC11202002, “P18: Novel Anticancer Peptide from Induced Tumor-Suppressing Cells Targeting Breast Cancer and Bone Metastasis” (Cancers, 2024).

One data set concerns PANC198 PDAC cells. Briefly: MTT-based cell viability assay. Conditions: PANC198 (PAN198); 25 μg/mL. The protocol:
(§1) Using 96-well plates with approximately 2000 cells per well, an MTT-based metabolic activity assay was performed. The cells were treated with agents and incubated for two days. On the fourth day, they were stained with 0.5 mg/mL thiazolyl blue tetrazolium bromide (M5655, Sigma). The optical density, used to assess metabolic activity, was measured at 562 nm. For the EdU-based proliferation activity assay, the cells were seeded in 96-well plates at about 1000 cells per well. A fluorescence-based cell proliferation kit (Click-iT™, EdU Alexa Fluor™ 488 Imaging Kit; Thermo Fisher, Waltham, MA, USA) was used according to the manufacturer’s instructions.

Data set [1] has as its system MDA-MB-436 cells. Briefly: EdU-based proliferation assay. Type of data set: cell-based, human. The settings on record: 25 µg/mL. The protocol: as §1
For data set [2], the system named is MDA-MB-231 cells. Briefly: EdU-based proliferation assay. The data set is classed as cell-based, human. The settings on record: 25 µg/mL. The procedure:
as §1

For a further data set, the system named is MC3T3 osteoblasts. Type of data set: cell-based. The protocol:
as §1

The next data set relates to Jurkat lymphocytes. The data set is classed as cell-based. The protocol:
as §1

Data set [3] has as its system RANKL-stimulated osteoclasts. Description: Osteoclast differentiation and maturation. Type of data set: cell-based. The settings on record: 25 μg/mL.
For data set [4], the system named is MDA-MB-436 cells. Briefly: Scratch-based motility assay. The settings on record: 25 µg/mL, 24 h. Type of data set: cell-based, human. The protocol: (§2) To evaluate the two-dimensional motility of cancer cells, a wound-healing scratch assay was utilized, and the change in the scratch area was determined. On day 1, ~3 × 10^5 cells were seeded in 12-well plates, and, on day 2, a scratch was made on the cell layer, with the tip of a plastic pipette. Using a light microscope (40×), cell-free zones were imaged after 0 h and 24 h, and the alteration in their areas was quantified by Image J (Version 1.54 f).

Data set [5] deals with MDA-MB-231 cells. Briefly: Scratch-based motility assay. Type of data set: cell-based, human. The settings on record: 25 µg/mL, 24 h. The protocol:
as §2

The test system of data set [6] is peripheral blood mononuclear cells. Type of data set: cell-based, human. The protocol:
as §1

The subject of a further data set is Cdc42. Description: FRET-based GTPase activity assay. The data set is classed as cell-based. Conditions: MDA-MB-231 cells; 25 µg/mL for 3 h. The text has this:
(§3) The three FRET GTPase biosensors were utilized to monitor the activities of Rac1, Cdc42, and RhoA in response to ACPs. GTPase activity was estimated based on the emission ratio of yellow fluorescent protein (YFP) to cyan fluorescent protein (CFP), using a Nikon Ti-E inverted microscope with an EMCCD camera (Photometrics, Tucson, AZ, USA), a filter wheel controller (Sutter Instruments, Novato, CA, USA), and a Nikon Perfect Focus System. To reduce photobleaching, an Intensilight fluorescence illuminator (Nikon, Tokyo, Japan) was employed with a neutral-density 32 filter (3% transmittance). The images were captured with a 40× (0.75 numerical aperture) objective, and they were scaled utilizing the color bar, as previously published.
(§4) This study next investigated the role of P18 in regulating the activity of Rho family GTPases. MDA-MB-231 breast cancer cells were transfected with Rac1, Cdc42, or RhoA biosensors and treated with P18 at a concentration of 25 µg/mL for 3 h. The GTPase activity was assessed by measuring the emission ratio of the biosensor within individual live cells.

Another data set deals with Rac1. Briefly: FRET-based GTPase activity assay. The data set is classed as cell-based. The settings on record: MDA-MB-231 cells; 25 µg/mL for 3 h.
Text: as §3, §4

The subject of another data set is RhoA. Briefly: FRET-based GTPase activity assay. Type of data set: cell-based. Conditions: MDA-MB-231 cells; 25 µg/mL for 3 h.
Text: as §3, §4

The test system of another data set is Col1, ALP, OCN. Description: Western blot analysis of osteoblast development proteins. The data set is classed as cell-based. The settings on record: Suppl. Figure S1d. The protocol: (§5) Cells were lysed using a RIPA lysis buffer (sc-24948, Santa Cruz Biotech, Dallas, TX, USA) containing protease inhibitors (PIA32963, Thermo Fisher) and phosphatase inhibitors (2006643, Cal-biochem, Billerica, MA, USA). The proteins were separated on 10–15% SDS gels (Bio-Rad Laboratories, Hercules, CA, USA) and transferred to a polyvinylidene difluoride membrane (IPVH00010, Millipore, Billerica, MA, USA). The membrane was incubated with primary antibodies, followed by incubation with secondary antibodies (7074S/7076S, Cell Signaling, Danvers, MA, USA). The antibodies used included those against Snail, p-Src, Src, cleaved caspase 3, caspase 3, RANKL, Cdc42, Col1 and RhoA (Cell Signaling), ALP (Santa Cruz Biotech), OCN (Abcam, Boston, MA, USA), with β-actin (Sigma) as a control. The protein levels were detected using SuperSignal West Femto Maximum Sensitivity Substrate (PI34096, Thermo Fisher) and a luminescent image analyzer (LAS-3000, Fuji Film, Tokyo, Japan).
For orientation: A western blot detects proteins with antibodies after separation by electrophoresis.

The next data set deals with MCF7 cells. Briefly: MTT-based cell viability assay. Details: species or system human. The settings on record: 5, 10, 15, and 25 µg/mL of P18. The protocol:
as §1

Data set [7] has as its system MDA-MB-436 cells. Description: MTT-based cell viability assay. Details: species or system human. The protocol:
as §1

For data set [8], the system named is MDA-MB-231 cells. Description: MTT-based cell viability assay. Details: species or system human. The protocol:
as §1

Data set [9] concerns femurs inoculated with 4T1.2 mammary tumor cells. Description: Bone microenvironment assay (ex vivo bone culture, Western blot). The data set is classed as cell-based, mouse. Conditions: 25 μg/mL P18 daily; 2 weeks. The protocol:
as §5
Femora were collected from […] female mice (~10 weeks old), and the surrounding connective tissues were removed. The femora were cut in half at the mid-diaphysis, and a hole was created at the end of the sample using a 25-gauge needle. 4T1.2 mammary tumor cells (2.5 × 10^5 cells) were resuspended in 10 μL of culture medium and injected into the bone marrow cavity through the open end of the diaphysis. […]

For data set [10], the system named is 4T1.2 mammary tumor cells. Briefly: MTT-based cell viability assay. Details: species or system mouse. The settings on record: 25 μg/mL. The protocol: as §1
Data set [11] deals with human triple-negative breast cancer tissue. Briefly: Ex vivo cancer tissue assay. The data set is classed as cell-based. Conditions: 25 µg/mL of P18; four days (96 h); n = 6. The procedure: The usage of human triple-negative breast cancer tissue was approved by the Indiana University Institutional Review Board (1911155674), and the tissues were received from the Indiana University Simon Comprehensive Cancer Center Tissue Procurement Core. Freshly isolated breast cancer tissue (~10 mg) was manually fragmented with a scalpel into small pieces (0.5~0.8 mm in length), which were grown in DMEM with 10% FBS and antibiotics for a day. […] The culture medium, consisting of these agents, was applied for 4 days, and a change in the fragment size was determined.

[12] abbreviates: relative to cn = 1.00, peptide concentration not given, treated two days, OD 562 nm.

Take TDYMVGSYGPR [P18]: the values for the MTT-based viability result (in the data set with PANC198 PDAC cells; in data set [10]) were “significantly decreased” and “consistently reduced”, respectively. In addition, the results for the EdU-based proliferation result in the data set on MDA-MB-436 cells [1] and in the data set on MDA-MB-231 cells [2] were “inhibited” and “decreased”, respectively. For the same sequence, the MTT viability result (in the data set with MC3T3 osteoblasts; in the data set on Jurkat lymphocytes; in data set [6]) was “did not exhibit any significant effects” in each case. For the same sequence, the “differentiation and maturation of RANKL-stimulated osteoclasts” value in data set [3] was “inhibited”. Besides, the “number of multi-nucleated TRAP-positive osteoclasts (more than three nuclei)” value in [3] was “significantly reduced”. For the same sequence, the scratch-based mobility entry with MDA-MB-436 cells [4] is on record as “inhibited”. For the same sequence, the scratch-based motility result in the data set with MDA-MB-231 cells [5] is “effectively reduced”. Besides, the “Cdc42 GTPase activity (FRET biosensor emission ratio)” value in the data set on Cdc42 is on record as “significant decrease”. Moreover, in the data set on Rac1, the “Rac1 GTPase activity (FRET biosensor emission ratio)” value is “no significant change”. The “RhoA GTPase activity (FRET biosensor emission ratio)” value in the data set with RhoA was “significant decrease”. In the data set on Col1, ALP, OCN, the “expression of type I collagen (Col1), alkaline phosphatase (ALP), and osteocalcin (OCN)” value is given as “upregulated”. Further, the “decrease in MTT viability” value is recorded as “dose-dependent” with MCF7 cells; “dose-dependent” in the data set on MDA-MB-436 cells [7] (5, 10, 15, and 25 µg/mL of P18); “dose-dependent” with MDA-MB-231 cells [8] (5, 10, 15, and 25 µg/mL of P18). For the same sequence, the figures for the MTT-based relative viability with MDA-MB-436 cells [7] (setting [12]) and in the data set with MDA-MB-231 cells [8] (setting [12]) were 0.82 and 0.86, respectively. In data set [9], the “levels of c-Cas 3, Cdc42, and alkaline phosphatase (ALP)” value was “upregulation”. The “size of ex vivo breast tissue fragments” value in data set [11] is listed as “significant decrease in the size”.
